Data from DBAASP.
Converted amounts (≈) assume the structure as drawn. One block for each molecule: values may come before it.

What was measured:
Assay in all cases: ≥ marks a high value that may be exact or a test limit, other limits are often not marked, values filed in µg/mL are converted to µM
Staphylococcus aureus = test system: Staphylococcus aureus
Pseudomonas fluorescens = test system: Pseudomonas fluorescens
Micrococcus luteus = test system: Micrococcus luteus
[1] = test system: Salmonella enterica subsp. enterica serovar Gallinarum
Bacillus cereus = test system: Bacillus cereus
Aeromonas hydrophila = test system: Aeromonas hydrophila
[2] = test system: Salmonella enterica subsp. enterica serovar Typhi
Shigella sp. = test system: Shigella sp.
Sporosarcina ureae = test system: Sporosarcina ureae
Burkholderia stabilis = test system: Burkholderia stabilis
Escherichia coli = test system: Escherichia coli
Microbacterium oxydans = test system: Microbacterium oxydans
Lelliottia amnigena = test system: Lelliottia amnigena
Bacillus megaterium = test system: Bacillus megaterium
Proteus sp. = test system: Proteus sp.
Kluyvera cryocrescens = test system: Kluyvera cryocrescens
[3] = test system: Pseudomonas aeruginosa PA14
[4] = test system: Enterobacter cloacae beta-12
Escherichia coli BL21 = test system: Escherichia coli BL21
Enterococcus faecium = test system: Enterococcus faecium
[5] = test system: Staphylococcus aureus K52
[6] = test system: Staphylococcus aureus K35
[7] = test system: Staphylococcus aureus ATCC 25923
[8] = test system: Staphylococcus epidermidis ATCC 12228
Pseudomonas aeruginosa = test system: Pseudomonas aeruginosa
[9] = test system: Enterococcus faecalis ATCC 29212
[10] = test system: Lactiplantibacillus plantarum 965
[11] = test system: Latilactobacillus sakei NCDO 2714
[12] = test system: Bacillus anthracis UM23-CL2
[13] = test system: Burkholderia cepacia J2540
[14] = test system: Staphylococcus aureus 68 HER 1049
[15] = test system: Escherichia coli K12 MG1655
[16] = test system: Pseudomonas aeruginosa LCCI
[17] = test system: Pseudomonas aeruginosa ATCC 21625
[18] = test system: Pseudomonas aeruginosa LC
[19] = test system: Pseudomonas aeruginosa LCGE
[20] = test system: Pseudomonas aeruginosa LCCE
[21] = test system: Salmonella enterica subsp. enterica serovar Typhimurium C77-31
[22] = test system: Staphylococcus aureus ATCC 29213
[23] = test system: Escherichia coli ATCC 25922
[24] = test system: Pseudomonas aeruginosa ATCC 21630
[25] = test system: Pseudomonas aeruginosa ATCC 10419
Escherichia coli HB101 = test system: Escherichia coli HB101
Bacillus subtilis PS832 = test system: Bacillus subtilis PS832
Escherichia coli MG1655 = test system: Escherichia coli MG1655

- MIC (Staphylococcus aureus): 164 µM (≈ 507 µg/mL)
- MIC (Pseudomonas fluorescens): ≥ 32.7 µM
- MIC (Micrococcus luteus): 16.4 µM (≈ 50.7 µg/mL)
- MIC [1]: 1.64 µM (≈ 5.07 µg/mL)
- MIC (Bacillus cereus): 0.327 µM (≈ 1.01 µg/mL)
- MIC (Aeromonas hydrophila): 1.64 µM (≈ 5.07 µg/mL)
- MIC [2]: 16.4 µM (≈ 50.7 µg/mL)
- MIC (Shigella sp.): 16.4 µM (≈ 50.7 µg/mL)
- MIC (Sporosarcina ureae): ≥ 164 µM
- MIC (Burkholderia stabilis): ≥ 164 µM
- MIC (Escherichia coli): 16.4 µM (≈ 50.7 µg/mL)
- MIC (Microbacterium oxydans): 0.164 µM (≈ 0.507 µg/mL)
- MIC (Lelliottia amnigena): 16.4 µM (≈ 50.7 µg/mL)
- MIC (Bacillus megaterium): 3.27 µM (≈ 10.1 µg/mL)
- MIC (Proteus sp.): ≥ 164 µM
- MIC (Kluyvera cryocrescens): ≥ 164 µM
Compound: CC[C@H](C)[C@H](NC(=O)[C@H](Cc1cnc[nH]1)NC(=O)[C@H](CC(N)=O)NC(=O)[C@@H](NC(=O)[C@@H](NC(=O)[C@H](CC(C)C)NC(=O)[C@H](CC(=O)O)NC(=O)[C@@H]1CCCN1C(=O)[C@H](CC(C)C)NC(=O)[C@H](CCCCN)NC(=O)[C@H](Cc1c[nH]c2ccccc12)NC(=O)[C@@H](N)CCC(=O)O)[C@@H](C)CC)[C@@H](C)CC)C(=O)N[C@H](C(=O)N[C@@H](CC(C)C)C(=O)N[C@H](C(=O)N[C@@H](CCCN=C(N)N)C(=O)N[C@@H](CCCN=C(N)N)C(=O)N[C@@H](CC(N)=O)C(=O)N[C@H]1CSSC[C@@H](C(=O)NCC(=O)O)NC(=O)[C@H](CCCN=C(N)N)NC(=O)[C@H](Cc2ccc(O)cc2)NC(=O)[C@H](CCCCN)NC(=O)[C@H](Cc2ccccc2)NC1=O)[C@@H](C)O)[C@@H](C)O [EWKLPDLIINHITLTRRNCFKYRCG]

Compound: CC[C@H](C)[C@H](NC(=O)CNC(=O)[C@H](CO)NC(=O)[C@H](CC(C)C)NC(=O)[C@@H](NC(=O)[C@H](CCCCN)NC(=O)CNC(=O)[C@@H](NC(=O)[C@H](CC(C)C)NC(=O)[C@@H]1CCCN1C(=O)[C@H](CC(C)C)NC(=O)[C@@H](N)Cc1ccccc1)[C@@H](C)CC)C(C)C)C(=O)N[C@@H](CC(C)C)C(N)=O [FLPLIGKVLSGIL]
- MIC [3]: ≥ 128 µM
- MIC [4]: ≥ 128 µM
- MIC (Escherichia coli BL21): ≥ 64 µM
- MIC (Enterococcus faecium): 17.5 µM (≈ 24 µg/mL)
- MIC [5]: 4.4 µM (≈ 6.02 µg/mL)
- MIC [6]: 4.4 µM (≈ 6.02 µg/mL)
- MIC [7]: 5.2 µM (≈ 7.12 µg/mL)
- MIC [8]: ≥ 128 µM
- MIC (Pseudomonas aeruginosa): > 64 µM
- MIC [9]: 20.9 µM (≈ 28.6 µg/mL)

- MIC [11]: 0.015 µM (≈ 0.0298 µg/mL)
Compound: CC[C@H](C)[C@H](NC(=O)[C@H](C)NC(=O)[C@@H](NC(=O)[C@H](C)NC(=O)CN)[C@@H](C)O)C(=O)N[C@@H](CCCCN)C(=O)N[C@@H](CCC(N)=O)C(=O)N[C@H](C(=O)N[C@@H](CCCCN)C(=O)N[C@@H](CCCCN)C(=O)N[C@@H](CC(C)C)C(=O)N[C@@H](Cc1ccccc1)C(=O)N[C@@H](CCCCN)C(=O)N[C@@H](CCCCN)C(=O)N[C@@H](Cc1c[nH]c2ccccc12)C(=O)NCC(=O)N[C@@H](Cc1c[nH]c2ccccc12)C(=O)O)C(C)C [GATAIKQVKKLFKKWGW]
- MIC [10]: 0.4 µM (≈ 0.796 µg/mL)

Compound: CC[C@H](C)[C@H](NC(=O)CN)C(=O)NCC(=O)N[C@@H](CCCCN)C(=O)N[C@@H](Cc1ccccc1)C(=O)N[C@@H](CC(C)C)C(=O)N[C@@H](Cc1cnc[nH]1)C(=O)N[C@@H](CO)C(=O)N[C@@H](C)C(=O)N[C@@H](CCCCN)C(=O)N[C@@H](CCCCN)C(=O)N[C@@H](Cc1ccccc1)C(=O)N[C@@H](Cc1ccccc1)C(=O)N[C@@H](CCCCN)C(=O)N[C@@H](CCCN=C(N)N)C(=O)N[C@H](C(=O)N[C@H](C(=O)N[C@@H](CCC(N)=O)C(=O)N[C@@H](CCCN=C(N)N)C(=O)N[C@H](C(=O)N[C@@H](CCCCN)C(=O)N[C@@H](CC(=O)O)C(=O)N[C@@H](Cc1ccccc1)C(=O)N[C@@H](CC(C)C)C(=O)N[C@@H](CCCN=C(N)N)C(=O)O)[C@@H](C)CC)C(C)C)[C@@H](C)CC [GIGKFLHSAKKFFKRIVQRIKDFLR]
- MIC [12]: ≥ 82.4 µM
- MIC [13]: ≥ 82.4 µM

- MIC [14]: 2.19 µM (≈ 4 µg/mL)
- MIC [15]: 2.19 µM (≈ 4 µg/mL)
Compound: CC[C@H](C)[C@H](NC(=O)[C@H](CC(C)C)NC(=O)[C@H](CCCN=C(N)N)NC(=O)[C@H](Cc1c[nH]c2ccccc12)NC(=O)CN)C(=O)N[C@@H](CCCCN)C(=O)N[C@@H](CCCCN)C(=O)N[C@H](C(=O)N[C@@H](CC(C)C)C(=O)N[C@@H](CCCN=C(N)N)C(=O)N[C@H](C(=O)N[C@@H](Cc1ccccc1)C(=O)N[C@@H](CCCCN)C(=O)NCC(=O)N[C@@H](CC(C)C)C(=O)O)C(C)C)[C@@H](C)CC [GWRLIKKILRVFKGL]

- MIC [16]: 2 µM (≈ 4.54 µg/mL)
- MIC [17]: 4 µM (≈ 9.07 µg/mL)
- MIC [18]: 1 µM (≈ 2.27 µg/mL)
- MIC [19]: 4 µM (≈ 9.07 µg/mL)
- MIC [20]: 4 µM (≈ 9.07 µg/mL)
- MIC [21]: ≥ 128 µM
- MIC [22]: 128 µM (≈ 290 µg/mL)
- MIC [23]: 64 µM (≈ 145 µg/mL)
- MIC [8]: 64 µM (≈ 145 µg/mL)
- MIC [24]: 4 µM (≈ 9.07 µg/mL)
- MIC [25]: 4 µM (≈ 9.07 µg/mL)
Compound: CC[C@H](C)[C@H](NC(=O)[C@H](CCCCN)NC(=O)[C@H](CCCCN)NC(=O)[C@H](CC(C)C)NC(=O)[C@H](CCCN=C(N)N)NC(=O)[C@H](CCCCN)NC(=O)[C@H](CCCN=C(N)N)NC(=O)[C@H](Cc1c[nH]c2ccccc12)NC(=O)[C@H](CCCCN)NC(=O)[C@H](CCCCN)NC(=O)[C@H](CCCN=C(N)N)NC(=O)[C@H](CC(C)C)NC(=O)[C@H](CCCN=C(N)N)NC(=O)[C@H](CCCN=C(N)N)NC(=O)[C@H](Cc1ccccc1)NC(=O)[C@@H](N)CCCN=C(N)N)C(N)=O [RFRRLRKKWRKRLKKI]

- MIC (Escherichia coli HB101): ≥ 128 µM
- MIC [23]: > 128 µM
Compound: CC[C@H](C)[C@H](NC(=O)[C@H](CCCN=C(N)N)NC(=O)[C@@H](N)CCCN=C(N)N)C(=O)N[C@@H](CCCN=C(N)N)C(=O)N1CCC[C@H]1C(=O)N[C@@H](CCCN=C(N)N)C(=O)N1CCC[C@H]1C(=O)N[C@@H](CCCN=C(N)N)C(=O)O [RRIRPRPR]

- MIC (Bacillus subtilis PS832): 4 µM (≈ 6.19 µg/mL)
- MIC (Escherichia coli MG1655): 8 µM (≈ 12.4 µg/mL)
Compound: CC[C@H](C)[C@H](NC(=O)[C@H](CCCN=C(N)N)NC(=O)[C@H](CCCCN)NC(=O)[C@H](CC(C)C)NC(=O)[C@H](CC(C)C)NC(=O)CNC(=O)[C@H](Cc1cnc[nH]1)NC(=O)[C@@H](NC(=O)[C@@H](N)CCCN=C(N)N)[C@@H](C)O)C(=O)N[C@@H](CCCCN)C(=O)N[C@H](C(=O)N[C@@H](CC(C)C)C(=O)N[C@@H](CC(C)C)C(N)=O)[C@@H](C)O [RTHGLLKRIKTLL]
